Laboratory results from patent publication US8318798B2, “Therapeutic agent for neurodegenerative disease” (priority 2005, dated 2012).

How the values were obtained:
DJ-1 protein [1] = molecular target: T1, DJ-1 protein (Homo sapiens, UniProt Q99497); experiment: Binding to DJ-1 protein by AffinixQ quartz oscillator frequency change; conditions: compound fixed on sensor chip; DJ-1 protein vs BSA added (FIG. 11)
T1 sequence (Q99497 1-189): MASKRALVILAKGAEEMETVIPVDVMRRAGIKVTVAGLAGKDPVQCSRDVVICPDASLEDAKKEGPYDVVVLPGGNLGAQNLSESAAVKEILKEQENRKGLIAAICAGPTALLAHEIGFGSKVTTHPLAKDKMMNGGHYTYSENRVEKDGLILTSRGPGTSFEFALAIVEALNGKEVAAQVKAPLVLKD
From the text: The AffinixQ is an instrument for quantifying interaction between biomolecules at the order of nanograms by changes in frequency of the crystal oscillator. It utilizes the proportional relationship between change in frequency of the quartz oscillator and the weight of the adherings on the surface of the quartz oscillator.
The compound was fixed on top of the sensor chip, which is the oscillator, using an amino coupling reagent. The sensor chip onto which the compound had been fixed was immersed in a measurement vessel filled with 8 mL of PBS (phosphate buffer), and held until the frequency became constant. Following this, 8 μL of 1 mg/mL DJ-1 protein or BSA (bovine serum albumin) was added to the measurement vessel.

SH-SY5Y human neurons = experiment: Suppression of 6-hydroxydopamine-induced cell death of SH-SY5Y human neurons (Cell Counting Kit-8 / MTT assay); format: cell-based; conditions: compound 1 μM, 24 h before 100 μM 6-hydroxydopamine, 40 h; compared with control (FIG. 9)
Method: In this example, the effect of compounds 1 to 8 in suppressing cell death of SH-SY5Y human neurons was examined.
SH-SY5Y human neurons ([…], USA) were plated on a 96-well plate, and cultured to 80% confluency.
Compounds 1 to 8 in sterile aqueous solutions were individually added thereto at a sample concentration of 1 μM, or sterile water was added as a control.
24 hours after the addition of compounds 1 to 8 or sterile water, 6-hydroxydopamine (PBS solvent) (Wako Pure Chemical Industries, Ltd.) was added to each at a 6-hydroxydopamine concentration of 100 μM, or the same amount of PBS (containing no 6-hydroxydopamine) was added. Furthermore, 40 hours after the addition of 6-hydroxydopamine, Cell Counting Kit-8 was added for carrying out an MTT assay.
After 3 hours, a viable cell count was measured by measuring the absorbance at wavelength of 450 nm. For each of compounds 1 to 8 and the control, the viability was obtained from ‘(the viable cell count when 6-hydroxydopamine was added)/(the viable cell count when no 6-hydroxydopamine was added)’.
Compared with the control and compounds 7 and 8, it can be seen that the addition of any one of compounds 1 to 6 enhances the viability.

[2] = system: rats injected with 6-hydroxydopamine (6-OHDA); experiment: Methamphetamine-induced rotation of rats injected with 6-OHDA into midbrain left substantia nigra; format: in vivo, rat; conditions: 1 mM compound injected simultaneously with 6 mM 6-OHDA into left substantia nigra; methamphetamine after 9 weeks
Method: In this example, compound 1, 5, or 8 was injected into rat midbrain left substantia nigra and the effect thereof was examined. • (1) Either 6 mM of 6-hydroxydopamine (6-OHDA) alone or mixtures of 6 mM of 6-OHDA and 1 mM of each compound was injected into the midbrain left substantia nigra (4.8 mm×1.8 mm, 7.8 mm depth) of rats (Wister rat, male, 250 g). Where the rat was injected with 6 mM of 6-hydroxydopamine (6-OHDA) in midbrain left substantia nigra, the right-side substantia nigra was intact but in the left-side oxidative stress induced the death of dopamine neurons, and the rat rotate in a clockwise direction due to the imbalanced amount of acting dopamine, showing a behavioral abnormality characteristic of Parkinson's disease patients.
After 9 weeks, the rats were injected with methamphetamine (Dainippon Pharma Co., Ltd.), which causes a dopamine release, leading to a release of large amount of dopamine from dopamine neurons into the striatum. Because of the imbalance in the amounts of released dopamine between the left and right substantia nigra the rats started to rotate in a clockwise direction. The rats were placed in a rotameter, and the number of rotations was measured. The total number of rotations over 60 minutes is shown in FIG. 14, and the number of rotations at every 5 minutes over time is shown in FIG. 15. […]

dopamine neurons = experiment: TH staining of dopamine neurons in rat midbrain substantia nigra after 6-OHDA injection; format: in vivo; conditions: 1 mM compound injected simultaneously with 6 mM 6-OHDA (FIG. 16)
Method: The midbrain substantia nigra (SNpc) was dissected out and fixed in a 100 mM phosphate buffer containing 4% of paraformaldehyde for 2 days, and then submerged in 100 mM phosphate buffer (containing 15% of sucrose and 0.1% of sodium azide). A 20 μm thick slices were prepared using Cryostat, and submerged in a 100 mM phosphate buffer containing 0.3% Triton X-100 (PBS-T).
These brain slices were reacted with anti-tyrosine hydroxylase (TH: a dopamine-biosynthetic enzyme and marker for dopamine neurons, manufactured by Sigma, 1:20,000 dilution) at 4° C. for 3 days, then washed, and reacted with a biotinylated anti-mouse IgG antibody (1:2,000 dilution) at room temperature for 2 hours. Subsequently, avidin peroxidase coloration was carried out using an ABC kit (Vector Laboratories) at room temperature for 1 hour. After washing several times with PBS-T, coloration was carried out by nickel ammonium-containing 3,3′-diaminobenzidine (DAB).
In the left substantia nigra into which only 6-OHDA was injected, TH staining was not observed and thus dopaminergic neuron death was observed. In the right substantia nigra, which was not injected with 6-OHDA, live dopamine neurons were observed (FIG. 16 (1)).

DJ-1 protein [3] = molecular target: T1, DJ-1 protein; experiment: Suppression of transition of DJ-1 to oxidized form (H2O2 treatment, isoelectric focusing); format: biochemical; conditions: 0.2 mM or 2 mM H2O2, room temperature 1 hour; isoelectric focusing (FIG. 12)
Method: In this example, it was confirmed that compound 1 and compound 5 suppressed the transition of DJ-1 to an oxidized form.
0.5 mg of purified DJ-1 protein was dissolved in 1 mL of PBS. 10 μL of 1 mM compound 1, 5, or 7 was added to 500 μL of this DJ-1 protein solution, and rotated at 4° C. for 1 hour. Subsequently, 0.4 or 4 mM hydrogen peroxide (H2O2) was added thereto, the mixture was allowed to stand at room temperature for 1 hour then the hydrogen peroxide concentration became 0.2 mM or 2 mM. Further, dialysis was carried out 3 times with PBS for a total of 4.5 hours, followed by an isoelectric focusing 0.5 μg of the DJ-1 protein . The reagents used in the isoelectric focusing were as follows. • Gel solution for isoelectric focusing: 9.2 M Urea, 2% NP-40, 4% acrylamide, 1% Ampholine (pH 5-8; Amersham Bioscience), 1% Ampholine (pH 3-10; Amersham Bioscience) • Sample Buffer: 5 M Urea, 2 M ThioUrea, 2% NP-40, 5% Glycerin, 5% 2-mercaptoethanol, 1.6% Ampholine (pH 5-8), 0.4% Ampholine (pH 3.5-10) • Protection solution: 8 M Urea, 0.8% Ampholine (pH 5-8), 0.2% • Ampholine (pH 3.5-10) • Electrophoresis Buffer+electrode: 0.02 M Phosphoric acid • −electrode: 0.02 M NaOH • Towbin: 25 mM Tris, 192 mM Glycine

mitochondrial complex 1 = experiment: Maintenance of mitochondrial Complex 1 activity in 6-hydroxydopamine-treated SH-SY5Y cells; format: cell-based, human; conditions: compound 1 μM, 24 h before 50 μM 6-hydroxydopamine, 6 h; compared with control (FIG. 13)
Method: In this example, the effect of compounds 1, 5, and 8 in maintaining the activity of mitochondrial complex 1 was examined.
6-Hydroxydopamine induces oxidative stress by degrading the enzymic activity of Complex 1 and thereby causing a functional disorder. It is considered that the compounds identified here would suppress neuronal death due to oxidative stress by preventing deactivation of complex 1. Therefore, changes in activity of complex 1 resulting from addition of the compound was measured.
SH-SY5Y human neurons were plated onto a 10 cm dish and cultured to 80% confluency. Compounds 1, 5, and 8 individually were added at the compound concentration of 1 μM, or sterile water was added. 24 hours after the addition of the compound or sterile water, 6-hydroxydopamine (PBS solvent) was added at a 6-hydroxydopamine concentration of 50 μM, or the same amount of PBS (containing no 6-hydroxydopamine) was added. 6 hours after the addition of 6-hydroxydopamine, the cells were collected. […] After quantifying the protein, 100 μg of the mitochondrial protein was added to a cuvette filled with a reaction buffer, and the total amount was made up to 480 μL. After incubation at 37° C. for 3 minutes, 20 μL of 5 mM NADH was added to the cuvette, and decrease in absorbance at 340 nm was monitored for 4 minutes using an absorptiometer. […]

Compound | binding to DJ-1 protein (frequency change) (DJ-1 protein [1]) | dopaminergic neuronal death in left substantia nigra (TH staining) (dopamine neurons) | other results
CS(=O)(=O)O[C@H]1CO[C@@H](Cn2cnc3c(N)ncnc32)C1O (some centres unmarked) [compound 2] | bind to DJ-1 protein |  | 
NC(=O)C(CS(N)(=O)=O)NC(=O)C(Cc1ccccc1)NC(=O)CNC(=O)OCc1ccccc1 (centres unmarked) [compound 6] | bind to DJ-1 protein |  | 
CC1(C)OC2C(O1)[C@@H](CO)O[C@H]2n1cnc2c(NC(=O)C(C)(C)C)ncnc21 (some centres unmarked) [compound 7] |  |  | viability (effect in suppressing cell death) (SH-SY5Y human neurons): did not have such effects
CC(=O)O[C@H](CO)[C@H](O)C(O)Cn1cnc2c(N)ncnc21 (some centres unmarked) [compound 4] | bind to DJ-1 protein |  | 
COCO[C@@H](/C=C/C(=O)OCc1ccccc1)[C@@H](CCO[Si](C)(C)C(C)(C)C)C(Cc1ccccc1)Cc1ccccc1 [compound 8] |  | did not have such effect | effect on behavioral abnormality (number of rotations), in words [2]: did not show such effect; viability (effect in suppressing cell death) (SH-SY5Y human neurons): did not have such effects
CC1(C)OC2C(=O)O[C@@H](n3cnc4c(N)ncnc43)C2O1 (some centres unmarked) [compound 1] | bind to DJ-1 protein | neuronal death was considerably suppressed | transition of DJ-1 protein to an oxidized form (DJ-1 protein [3]): suppressed the transition of DJ-1 protein to an oxidized form; Complex 1 activity (mitochondrial complex 1): Complex 1 activity was maintained
COc1ccc(CC(=O)NCCc2cc(OC)c3c(c2)OCO3)cc1OCc1ccccc1 [compound 5] |  | neuronal death was considerably suppressed | transition of DJ-1 protein to an oxidized form (DJ-1 protein [3]): suppressed the transition of DJ-1 protein to an oxidized form; Complex 1 activity (mitochondrial complex 1): Complex 1 activity was maintained
